Measured values published in patent US7173021B2, “Synthesis of temozolomide esters as potent anticancer pro-drugs for topical and transdermal applications in treatments of cancers” (Tianjin North Pharm Sci-Tech Co., Ltd., priority 2004, dated 2007).
Values after ≈ are worked out from the molar mass of the structure shown. One block for each compound: values may come before it.

Assays:
[1] = Solubility in 10% v/v propylene glycol; assay type: physicochemical; conditions: 10% v/v propylene glycol aqueous solution, aqueous with cosolvent or surfactant or cyclodextrin, thermodynamic from solid, ambient conditions, stirred 5 hours, read-out: Solubility, Concentration
Procedure: The potential of temozolomide esters used as topical and transdermal prodrugs is first proven through studies of their solubility. That is a decreased trend of solubility in an aqueous solution with increase of the length of the ester hydrocarbon alkyl chain of the temozolomide esters. It is clear the solubility constantly decreases from the methyl ester to the octyl ester, while temozolomide itself is 3.0 mg/ml similar to that of the methyl ester. […] Similarly to the esters, the solubility of the temozolomide amide products in the aqueous solution is considerably lower than that of temozolomide.
The solubility of temozolomide and the temozolomide esters was determined in 10% v/v propylene glycol by stirring an excess of the solid products at room temperature for 5 hours. The mixtures were then filtered, diluted with sample solvent and analysed using HPLC.

[2] = In vitro permeation, Franz diffusion cell, silicone membrane; assay type: in vitro ADME; conditions: 37° C., 8 h, FIGS. 3-5
Description: Jacketed Franz-type diffusion cells were used throughout the study and the barrier (12) (skin or silicone membrane) was mounted between the two chambers (14, 16) (2.8–3.4 cm^2 available surface area) with the dermal side in contact with the receiver solution (FIG. 2). The diffusion chambers (10) comprised a barrier of skin or silicone membrane (12) mounted between two chambers (14, 16). A cap (18) formed the donor compartment (14). The second receptor compartment (16) contained a receptor cell (20) with a stirring bar (22), sampling port (24) and cover (26). The stirring bar (22) was stirred by means of a magnet plate (28) having a rotating magnet. The receptor compartment comprised a water jacket (30) having a water inlet (32) and a water outlet (34).
Three types of materials were used in permeation studies. • 1. Silicone membrane (Silastic Medical Grade, 500-5, Dow Corning 0.005 in thick) was cut into circular sections (2 cm diameter) and washed with double distilled water prior to use. • 2. Full-thickness rat skin was obtained from Male Wistar rats aged 10 to 12 weeks and weighing 250 to 300 g, which were sacrificed by cervical dislocation, the abdomen shaved and the intact skin removed by dissection. Following removal of fat tissue, the skin was cut into circular pieces and used immediately. • 3. Samples of adult human epidermis were purchased from the Stephen Kirby Skin Bank (UK). The samples were from the leg, were stored at −18° C. and used within one week. Experiments
The membrane (as detailed above) was mounted on the diffusion cell (10), on which the surface area available for diffusion of each cell was about 2.8–3.4 cm^2. The cell cap (18) was placed on the membrane (12), and it was sealed with Parafilm® connecting the cell cap, membrane, and receptor cell. The capacity of each receptor cell was around 25–26 ml, which was filled with receptor solution and was completely in contact with the membrane sheet. During the course of experiment, the solution was continuously stirred by teflon-coated magnetic bar (22) placed in the cell (20). The temperature was maintained at 37° C. by a thermostatic water pump that circulated the water through the jacket (30) surrounding the cell body. The system was allowed to equilibrate under these conditions for half an hour. Finally, the prepared sample solution (2 ml) was added into the donor cap cell, and it was sealed with Parafilm® to minimize the evaporation of donor solution. 1 ml of receptor solution was removed every 30 minutes for 5 hours and then every 60 minutes for a further 3 hours. The volumes withdrawn were always replaced with equal volumes of fresh receptor solution to maintain constant volume. The concentration of each sample solution was determined by using HPLC.
For every sample, six determinations were performed on human and rat skin, and three determinations were carried out through artificial silicone membrane.
As stated above, after the removal of receptor solution, the receiver compartment was refilled with an identical volume of receptor fluid. This causes of the dilution of receptor solution leading to an under determination of the sample concentration. As a consequence, it was necessary to mathematically correct each successive sample concentrations, in the present invention, which was determined by applying the following equation:
[formula] where Ct is the actual current concentration of drug in the receptor phase at time t, Cmt is the apparent (i.e. measured) current concentration of drug in the receptor phase, Vs is the sample volume withdrawn for analysis, Vr is the volume of receptor solution, and ΣCm is the summed total of the previous measured concentrations.
Finally, the amount of drug penetrating the skin per unit area was calculated by dividing the obtained concentrations by the surface area available for diffusion cell and this value was different for each individual cell. […]

MV3 (human melanoma) = experiment: In vitro tumour cell growth inhibition (MTT), MV3; assay type: cell-based; conditions: 96 h
Procedure: (§1) Temozolomide (white powder), temozolomide acid (white powder) and temozolomide-8-carboxylate hexyl (white scale crystal) were made in house. For the estimation of in vitro tumour cell growth inhibition, MV3 (human melanoma), M14 (human melanoma), B16 and B16-BL6 (mouse melanoma), SHG-44, TJ899 and TJ905 (human glioma), MCF-7 (human breast), HCT-8 (human colon), A549 (human non small lung), Bel7402 (human hepatocellulor), and BGC-823 (human stomach) were used. All tumour cells were cultured in RPMI-1640 medium supplemented with 10% fetal bovine serum (FBS) at 37° C. in a humidified 5% CO2 incubator.
(§2) After being harvested from culture flasks, a cell suspension of 1×10^4/ml was made by using 1640 RPMI medium supplemented with 10% fetal bovine serum. 100 μl (contains 1000 tumour cells) of the cell suspension was seeded per well of 96-well flat-bottom Costar culture plates at 37° C. in a humidified 5% CO2 incubator for 24 hrs before introducing drugs. Each tested compounds was made for five different concentrations and 100 μl of the each concentration was introduced into parallel three wells; control wells were added with 100 μl of plain medium alone; fluorouracil (a chemotherapeutic antitumour drug) was used as the positive control. Cells were then incubated for 96 h. Proliferative response and cell death were determined using MTT (3-(4,5-dimethylthiazolyl)-2,5-diphenyl-tetrazolium bromide) assay.
(§3) MTT assay: Following incubation of cells with the tested compounds for 96 h, 100 μl of 0.4 mg/ml MTT in RPMI 1640 was added to each well and the plate was incubated at 37° C. for 4 h. The plate was then centrifuged and followed by removal of medium. 150 μl of DMSO was then added to dissolve formazan crystal. DMSO-added plates were placed on a plate shaker for 5 min and absorbance was measured spectrophotometrically at 540 nm (with reference wavelength at 450 nm) using a Benchmark microtiter plate reader (Bio-Rad 550, Bio-Rad Laboratories, CA, U.S.A.).
(§4) The IC50 was calculated from the curve of the tested compound concentrations against the inhibition rate of the tumour cells. Table 1 summarized the experiment results by using six human cancer cell lines, HCT-8 (colon carcinoma), A549 (non small lung carcinoma), MCF-7 (breast), Bel7402 (hepatocellulor carcinoma), BGC-823 (stomach adenocarcinoma), and MV3 (melanoma). Table 2 summarized the results from the experiment results by using two human melanoma cell lines, MV3 and M14, two mouse melanoma cell lines, B16 and B16-BL6, and three human glioma cell lines, TJ899, SHG-44 and TJ905.

MCF-7 (human breast) = experiment: In vitro tumour cell growth inhibition (MTT), MCF-7; assay type: cell-based; conditions: MCF7, Table 1 experiment, 96 h
Procedure: as §1, §2, §3
(§5) The IC50 was calculated from the curve of the tested compound concentrations against the inhibition rate of the tumour cells. […]

[3] = test system: Bel7402 (human hepatocellulor); experiment: In vitro tumour cell growth inhibition (MTT), Bel-7402; assay type: cell-based; conditions: Table 1 experiment, 96 h
Procedure: as §1, §2, §3, §5

[4] = test system: A549 (human non small lung); experiment: In vitro tumour cell growth inhibition (MTT), A549; assay type: cell-based; conditions: Table 1 experiment, 96 h
Procedure: as §1, §2, §3, §5

HCT-8 (human colon) = experiment: In vitro tumour cell growth inhibition (MTT), HCT-8; assay type: cell-based; conditions: Table 1 experiment, 96 h
Procedure: as §1, §2, §3, §5

BGC-823 (human stomach) = experiment: In vitro tumour cell growth inhibition (MTT), BGC-823; assay type: cell-based; conditions: Table 1 experiment, 96 h
Procedure: as §1, §2, §3, §5

M14 (human melanoma) = experiment: In vitro tumour cell growth inhibition (MTT), M14; assay type: cell-based; conditions: Table 2 experiment, 96 h
Procedure: as §1, §2, §3, §4

B16 (mouse melanoma) = experiment: In vitro tumour cell growth inhibition (MTT), B16; assay type: cell-based; conditions: Table 2 experiment, 96 h
Procedure: as §1, §2, §3, §4

B16-BL6 (mouse melanoma) = experiment: In vitro tumour cell growth inhibition (MTT), B16-BL6; assay type: cell-based; conditions: Table 2 experiment, 96 h
Procedure: as §1, §2, §3, §4

TJ899 (human glioma) = experiment: In vitro tumour cell growth inhibition (MTT), TJ899; assay type: cell-based; conditions: Table 2 experiment, 96 h
Procedure: as §1, §2, §3, §4

SHG-44 (human glioma) = experiment: In vitro tumour cell growth inhibition (MTT), SHG-44; assay type: cell-based; conditions: Table 2 experiment, 96 h
Procedure: as §1, §2, §3, §4

TJ905 (human glioma) = experiment: In vitro tumour cell growth inhibition (MTT), TJ905; assay type: cell-based; conditions: Table 2 experiment, 96 h
Procedure: as §1, §2, §3, §4

SMILES: CC(C)NC(=O)c1ncn2c(=O)n(C)nnc12 [Temozolomide isopropyl amide, 3-Methyl-N-(iso-propyl)-4-oxoimidazo[5,1-d]-1,2,3,5-tetrazine-8-carboxamide]
solubility at 5 h [1]: 2800 µg/mL (≈ 11900 µM)

SMILES: Cn1nnc2c(C(=O)NC(C)(C)C)ncn2c1=O [Temozolomide t-butyl amide, 3-Methyl-N-(tert-butyl)-4-oxoimidazo[5,1-d]-1,2,3,5-tetrazine-8-carboxamide]
solubility at 5 h [1]: 1400 µg/mL (≈ 5590 µM)

SMILES: O=c1[nH]cc(F)c(=O)[nH]1 [Fluorouracil, fluorouracil, reference compound]
IC50 (MV3 (human melanoma); Homo sapiens, Table 1 experiment): 0.427 µg/mL (≈ 3.28 µM)
IC50 (MCF-7 (human breast)): 0.629 µg/mL (≈ 4.84 µM)
IC50 [3]: 0.495 µg/mL (≈ 3.81 µM)
IC50 [4]: 0.126 µg/mL (≈ 0.969 µM)
IC50 (HCT-8 (human colon)): 0.606 µg/mL (≈ 4.66 µM)
IC50 (BGC-823 (human stomach)): 0.722 µg/mL (≈ 5.55 µM)

The next lines start with results.

solubility at 5 h [1]: 1400 µg/mL (≈ 5570 µM)
SMILES: CCCCOC(=O)c1ncn2c(=O)n(C)nnc12 [Temozolomide n-butyl ester, n-Butyl 3,4-dihydro-3-methyl-4-oxoimidazo[5,1-d]-1,2,3,5-tetrazine-8-carboxylate]
Permeation through synthetic silicone membrane [2]: passed through the membrane far more efficiently

solubility at 5 h [1]: 2000 µg/mL (≈ 8430 µM)
SMILES: CCCOC(=O)c1ncn2c(=O)n(C)nnc12 [Temozolomide n-propyl ester, n-Propyl 3,4-dihydro-3-methyl-4-oxoimidazo[5,1-d]-1,2,3,5-tetrazine-8-carboxylate]
Permeation through synthetic silicone membrane [2]: passed through the membrane far more efficiently

IC50 MV3 (MV3 (human melanoma); Table 2 experiment (separate)): 0.647 µg/mL (≈ 3.55 µM)
IC50 M14 (M14 (human melanoma)): 0.558 µg/mL (≈ 3.06 µM)
IC50 B16 (B16 (mouse melanoma)): 10.000 µg/mL (≈ 54.9 µM)
IC50 B16-BL6 (B16-BL6 (mouse melanoma)): 61.765 µg/mL (≈ 339 µM)
IC50 TJ899 (TJ899 (human glioma)): 5.600 µg/mL (≈ 30.7 µM)
IC50 SHG-44 (SHG-44 (human glioma)): 1.261 µg/mL (≈ 6.92 µM)
IC50 TJ905 (TJ905 (human glioma)): 6.860 µg/mL (≈ 37.7 µM)
SMILES: CN(C)/N=N/c1[nH]cnc1C(N)=O [Darcabazine]
